ChEMBL document CHEMBL1201862, “PubChem BioAssay data set” (2004)
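Interpolation was linear, between the two tested concentrations surrounding the appropriate level; five concentrations were tested over 48 hours in 96-well plates. GI50 = concentration required for 50% inhibition of growth.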 The source made the active and inactive calls. No stated cut-off is given here; in the data, active = GI50 up to about 1.1 µM and inactive = higher.

Columns and labels:
Assay in all cases: NCI-60 cell line screen, 48 h
786-0 = system: 786-0
A498 = system: A498
A549 = system: A549
ACHN = system: ACHN
BT-549 = system: BT-549
CAKI-1 = system: CAKI-1
CCRF-CEM = system: CCRF-CEM
COLO 205 = system: COLO 205
DU-145 = system: DU-145
EKVX = system: EKVX
HCC 2998 = system: HCC 2998
HCT-116 = system: HCT-116
HCT-15 = system: HCT-15
HL-60 = system: HL-60
HOP-62 = system: HOP-62
HOP-92 = system: HOP-92
HT-29 = system: HT-29
Hs-578T = system: Hs-578T
IGROV-1 = system: IGROV-1
K562 = system: K562
KM12 = system: KM12
LOX IMVI = system: LOX IMVI
MCF7 = system: MCF7
MDA-MB-231 = system: MDA-MB-231
MDA-MB-435 = system: MDA-MB-435
MDA-N = system: MDA-N
MOLT-4 = system: MOLT-4
Malme-3M = system: Malme-3M
NCI-H226 = system: NCI-H226
NCI-H23 = system: NCI-H23
NCI-H460 = system: NCI-H460
NCI-H522 = system: NCI-H522
NCI/ADR-RES = system: NCI/ADR-RES
OVCAR-3 = system: OVCAR-3
OVCAR-4 = system: OVCAR-4
OVCAR-5 = system: OVCAR-5
OVCAR-8 = system: OVCAR-8
PC-3 = system: PC-3
RPMI-8226 = system: RPMI-8226
SF-268 = system: SF-268
SF-295 = system: SF-295
SF-539 = system: SF-539
SK-MEL-28 = system: SK-MEL-28
SK-MEL-5 = system: SK-MEL-5
SN12C = system: SN12C
SNB-19 = system: SNB-19
SR = system: SR
SW-620 = system: SW-620
TK-10 = system: TK-10
U-251 = system: U-251
UACC-257 = system: UACC-257
UO-31 = system: UO-31
M14 = system: M14
RXF 393 = system: RXF 393
SK-MEL-2 = system: SK-MEL-2
SK-OV-3 = system: SK-OV-3
SNB-75 = system: SNB-75

SMILES: O=C(Nc1nc(C23CC4CC(CC(C4)C2)C3)cs1)c1cc2c(ccc3ccccc32)oc1=O
- GI50 (786-0): > 100 µM (inactive)
- GI50 (A498): > 100 µM (inactive)
- GI50 (A549): > 100 µM (inactive)
- GI50 (ACHN): > 100 µM (inactive)
- GI50 (BT-549): > 100 µM (inactive)
- GI50 (CAKI-1): > 100 µM (inactive)
- GI50 (CCRF-CEM): > 100 µM (inactive)
- GI50 (COLO 205): > 100 µM (inactive)
- GI50 (DU-145): > 100 µM (inactive)
- GI50 (EKVX): > 100 µM (inactive)
- GI50 (HCC 2998): > 100 µM (inactive)
- GI50 (HCT-116): > 100 µM (inactive)
- GI50 (HCT-15): > 100 µM
- GI50 (HL-60): > 100 µM (inactive)
- GI50 (HOP-62): > 100 µM (inactive)
- GI50 (HOP-92): > 100 µM (inactive)
- GI50 (HT-29): > 100 µM (inactive)
- GI50 (Hs-578T): > 100 µM (inactive)
- GI50 (IGROV-1): > 100 µM (inactive)
- GI50 (K562): > 100 µM (inactive)
- GI50 (KM12): > 100 µM (inactive)
- GI50 (LOX IMVI): > 100 µM (inactive)
- GI50 (MCF7): > 100 µM (inactive)
- GI50 (MDA-MB-231): > 100 µM (inactive)
- GI50 (MDA-MB-435): > 100 µM (inactive)
- GI50 (MDA-N): > 100 µM (inactive)
- GI50 (MOLT-4): > 100 µM (inactive)
- GI50 (Malme-3M): > 100 µM (inactive)
- GI50 (NCI-H226): > 100 µM (inactive)
- GI50 (NCI-H23): > 100 µM (inactive)
- GI50 (NCI-H460): > 100 µM (inactive)
- GI50 (NCI-H522): > 100 µM (inactive)
- GI50 (NCI/ADR-RES): > 100 µM (inactive)
- GI50 (OVCAR-3): > 100 µM (inactive)
- GI50 (OVCAR-4): > 100 µM (inactive)
- GI50 (OVCAR-5): > 100 µM (inactive)
- GI50 (OVCAR-8): > 100 µM (inactive)
- GI50 (PC-3): > 100 µM (inactive)
- GI50 (RPMI-8226): > 100 µM (inactive)
- GI50 (SF-268): > 100 µM (inactive)
- GI50 (SF-295): > 100 µM (inactive)
- GI50 (SF-539): > 100 µM (inactive)
- GI50 (SK-MEL-28): > 100 µM (inactive)
- GI50 (SK-MEL-5): > 100 µM (inactive)
- GI50 (SN12C): > 100 µM (inactive)
- GI50 (SNB-19): > 100 µM (inactive)
- GI50 (SR): > 100 µM (inactive)
- GI50 (SW-620): > 100 µM (inactive)
- GI50 (TK-10): > 100 µM (inactive)
- GI50 (U-251): > 100 µM (inactive)
- GI50 (UACC-257): > 100 µM (inactive)
- GI50 (UO-31): > 100 µM (inactive)

SMILES: C=C(Cl)C(C)(Cl)CCC(Cl)C(C)(C)Cl (configuration not stated)
- GI50 (786-0): > 100 µM (inactive)
- GI50 (A498): > 100 µM (inactive)
- GI50 (A549): 44.8 µM (inactive)
- GI50 (ACHN): > 100 µM (inactive)
- GI50 (BT-549): > 100 µM (inactive)
- GI50 (CAKI-1): > 100 µM (inactive)
- GI50 (CCRF-CEM): 30.3 µM (inactive)
- GI50 (COLO 205): 44.8 µM (inactive)
- GI50 (DU-145): > 100 µM (inactive)
- GI50 (EKVX): > 100 µM (inactive)
- GI50 (HCC 2998): > 100 µM (inactive)
- GI50 (HCT-116): 35.1 µM (inactive)
- GI50 (HL-60): 36.2 µM (inactive)
- GI50 (HOP-62): > 100 µM (inactive)
- GI50 (HOP-92): 25.9 µM (inactive)
- GI50 (HT-29): 43.7 µM (inactive)
- GI50 (Hs-578T): 27 µM (inactive)
- GI50 (IGROV-1): 47.5 µM (inactive)
- GI50 (K562): 33.7 µM (inactive)
- GI50 (KM12): 87.9 µM (inactive)
- GI50 (LOX IMVI): 18.2 µM (inactive)
- GI50 (M14): 70.8 µM (inactive)
- GI50 (MCF7): 37.8 µM (inactive)
- GI50 (MDA-MB-231): 32.7 µM (inactive)
- GI50 (MDA-MB-435): 62.2 µM (inactive)
- GI50 (MDA-N): 44.2 µM (inactive)
- GI50 (MOLT-4): 23.9 µM (inactive)
- GI50 (Malme-3M): 38.2 µM (inactive)
- GI50 (NCI-H226): 42.3 µM (inactive)
- GI50 (NCI-H23): 83.2 µM (inactive)
- GI50 (NCI-H460): 78.9 µM (inactive)
- GI50 (NCI-H522): 23.1 µM (inactive)
- GI50 (NCI/ADR-RES): > 100 µM (inactive)
- GI50 (OVCAR-3): 46 µM (inactive)
- GI50 (OVCAR-4): 53.7 µM (inactive)
- GI50 (OVCAR-5): > 100 µM (inactive)
- GI50 (PC-3): 54.7 µM (inactive)
- GI50 (RPMI-8226): 20.5 µM (inactive)
- GI50 (RXF 393): 35.1 µM (inactive)
- GI50 (SF-268): 89.9 µM (inactive)
- GI50 (SF-295): > 100 µM (inactive)
- GI50 (SF-539): > 100 µM (inactive)
- GI50 (SK-MEL-28): > 100 µM (inactive)
- GI50 (SK-MEL-2): 27.2 µM (inactive)
- GI50 (SK-MEL-5): 50.5 µM (inactive)
- GI50 (SK-OV-3): > 100 µM (inactive)
- GI50 (SN12C): 51.6 µM (inactive)
- GI50 (SNB-19): > 100 µM (inactive)
- GI50 (SNB-75): 41.9 µM (inactive)
- GI50 (SR): 23.8 µM (inactive)
- GI50 (SW-620): 51.6 µM (inactive)
- GI50 (TK-10): > 100 µM (inactive)
- GI50 (U-251): 46.9 µM (inactive)
- GI50 (UACC-257): 29.4 µM (inactive)
- GI50 (UO-31): 37.6 µM (inactive)
